Results published in paper PMC6149664, “Synthesis and In Vitro Antimycobacterial Activity of Novel N-Arylpiperazines Containing an Ethane-1,2-diyl Connecting Chain” (Molecules : A Journal of Synthetic Chemistry and Natural …, 2017).
Read-outs that look alike come from different tables or passages of the source.

Legend:
[1] = test system: M. avium CNCTC My 330/80 (identical with ATCC 25291); assay: In vitro antimycobacterial MIC, dilution-micromethod in Šula semisynthetic medium; assay type: cell-based; conditions: Mycobacterium avium
[2] = Isocratic RP-HPLC lipophilicity (k, log k, extrapolated log kw, slope S), MeOH/water mobile phases; assay type: physicochemical; conditions: for log kw (RP-HPLC): extrapolated to 100% water from log k vs ϕM (MeOH); for S, slope (RP-HPLC): slope of regression log k vs ϕM, alternative measure of lipophilicity
Source text: Octadecyl-functionalized silica gel was used as a stationary phase in the RP-HPLC evaluation of 8a–h. A gradient of two solvents at different volume ratios modulated retention properties of a stationary phase. Liquid binary mixtures of methanol (MeOH) with water were employed as mobile phases in a present isocratic RP-HPLC method. The MeOH organic modifier was preferred because of making a reversed-phase chromatographic system closer to the octan-1-ol/water partitioning one in terms of sensitivity to H-bond donor properties of investigated compounds [39, 40]. The modifier was applied in different volume concentrations that varied from 60% to 85% (v/v).
The chromatographic HPLC-Diode Array Detection apparatus for the determination of capacity (retention) factor k (log k) values was the LC Agilent Infinity System (Agilent Technologies, Santa Clara, CA, USA) equipped with a Infinity 1260 gradient pump with a degasser, a 1260 HiPals automatic injector, a column thermostat 1290, a photo-diode array detector Infinity 1290 (all the equipments were obtained by Agilent Technologies) and personal computer with the Agilent ChemStation software (Agilent Technologies) for the registration of values and calibration procedures. The chromatographic column Eclipse plus RP C18, 150 × 4.6 mm i.d., a 5 μm particle size (Agilent Technologies), was used and thermostated at 35 °C.
The analyses were performed at pressure ranged from 7 MPa to 15 MPa. The detection wavelength was set to 260 nm, injection sample volume was 5 μL with a flow rate of 1.0 mL/min in all RP-HPLC analyses.
LC-MS Methanol (J. T. Baker Chemicals Co., Phillipsburg, NJ, USA) and HPLC-quality water (Sigma-Aldrich, Darmstadt, Germany) were used for a preparation of mobile phases. Water was firstly deionized and purified by the Millipore Simplicity 185 Ultrapure water purification system (Millipore, Billerica, MA, USA).
Methanol (MeOH)/water mobile phases with a various volume ratio of the organic modifier and water (60:40, 70:30, 80:20 and 85:15, respectively; v/v) were chosen. A concentration of all analyzed compounds 8a–h was c = 0.25 mg/mL. An queous solution of potassium nitrate (c = 0.1 M) was used for the determination of dead time t0 = 1.295 min. The capacity (retention) factor k values (Table 1) were calculated by Equation (6) as follows:k = (tr – t0)/t0(6) where the tr and t0 parameters were the retention times of a solute (tr) and unretained compound (potassium nitrate; t0), respectively. The observed retention (tr) and dead (t0) times were means of three independent determinations.
The log kw values, i.e., the logarithms of extrapolated capacity (retention) factors for 100% water in the isocratic RP-HPLC, were determined from intercepts of linear plots between the log k and ϕM (a volume fraction of an organic modifier in the isocratic elution RP-HPLC) according to Equation (7): log k = log kw – S × ϕM(7) where the S parameter represented the slope of a regression curve, which was related to the solvent strength of a pure organic solvent.

[3] = UV/Vis spectra of methanolic solutions (log ε); assay type: physicochemical; conditions: methanolic solution c = 3.0 × 10^−5 M; for log ε2(Ch-T): charge-transfer maximum λ2(Ch-T) = 238–240 nm; for log ε1: λ1 = 208–210 nm; for log ε3: λ3 = 274–276 nm
Source text: Electronic properties of the inspected compounds 8a–h (Table 3) were characterized by logarithms of molar absorption coefficients (log ε) of their methanolic solutions (c = 3.0 × 10^−5 M) investigated in the UV/Vis region of the spectrum.
The UV/Vis spectra of methanolic solutions of the analyzed compounds 8a–h (c = 3.0 × 10^−5 M) were estimated on the 8452A Diode Array spectrophotometer HP-8452A (Hewlett Packard, Palo Alto, CA, USA). Methanol for UV-spectroscopy (Merck) was used for the preparation of these solutions.
Results of the UV/Vis analyses were collected and stored digitally using the ChemStation controller software (Agilent Technologies, Waldbronn, Germany). The HP-8452A apparatus measured a complete range of a spectrum from 190 nm to 820 nm.
The log ε values characterizing methanolic solutions of the analyzed compounds 8a–h (c = 3.0 × 10^−5 M) were estimated at λ1 = 208–210 nm, λ2(Ch-T) = 238–240 nm and λ3 = 274–276 nm (Table 3), respectively, in a near ultraviolet (quarz) region of the electromagnetic spectrum between 200 and 400 nm. The log ε values for the observed absorption maxima were calculated according to the Lambert-Beer´s law discussed in [47], for example, and expressed by Equation (8):A = ε × c × l(8) where the A parameter represented the absorbance of a solution, the descriptor ε was a molar absorption coefficient (in the L/mol/cm units) and l was the path length (in the cm units).

[4] = test system: M. tuberculosis CNCTC My 331/88 (identical with H37Rv and ATCC 2794); assay: In vitro antimycobacterial MIC, dilution-micromethod in Šula semisynthetic medium; assay type: cell-based; conditions: Mycobacterium tuberculosis
M. kansasii CIT11/06 = assay: In vitro antimycobacterial MIC (IC90), alamarBlue 96-well assay in Middlebrook broth; assay type: cell-based, Mycobacterium kansasii; conditions: Mycobacterium kansasii, CIT11/06, 168 h, 7 days incubation, read-out: MIC, MK CIT11/06
[5] = test system: M. avium subsp. paratuberculosis CIT03; assay: microbe, parasite or virus in culture; assay type: cell-based; conditions: Mycobacterium avium, 168 h; 7 days incubation, alamarBlue; MIC = IC90; read-out: MIC, MAP CIT03
[6] = ATCC25291, 336 h, 14 d cultivation, read-out: MIC, MA My 330/88
[7] = ATCC25291, 504 h, 21 d cultivation, read-out: MIC, MA My 330/88
[8] = mobile phase MeOH/water 60:40 (v/v)
[9] = mobile phase MeOH/water 70:30 (v/v)
[10] = mobile phase MeOH/water 80:20 (v/v)
[11] = mobile phase MeOH/water 85:15 (v/v)
[12] = 336 h, 14-d/21-d cultivation, read-out: MIC against M. tuberculosis CNCTC My 331/88
[13] = 336 h, 14 d cultivation, read-out: MIC, MT My 331/88
[14] = 504 h, 21 d cultivation, read-out: MIC, MT My 331/88

Structure (SMILES)	MIC [1, 6]	MIC [1, 7]	capacity factor k (RP-HPLC) ([2]; MeOH/water 60:40 (v/v))	capacity factor k (RP-HPLC) ([2]; MeOH/water 70:30 (v/v))	capacity factor k (RP-HPLC) ([2]; MeOH/water 80:20 (v/v))	capacity factor k (RP-HPLC) ([2]; MeOH/water 85:15 (v/v))	log kw (RP-HPLC) [2]	log k (RP-HPLC) [2, 8]	log k (RP-HPLC) [2, 9]	log k (RP-HPLC) [2, 10]	log k (RP-HPLC) [2, 11]	S, slope (RP-HPLC) [2]	log ε2(Ch-T) [3]	log ε1 [3]	log ε3 [3]	MIC [4, 12]	MIC [4, 13]	MIC [4, 14]	MIC (M. kansasii CIT11/06)	MIC [5]	further results
COC(=O)Nc1ccc(C(O)CN2CCN(c3ccccc3F)CC2)cc1.Cl (stereo not drawn) [8e, 1-(2-Hydroxy-2-{4-[(methoxycarbonyl)amino]phenyl}ethyl)-4-(2-fluorophenyl)piperazin-1-ium chloride]	250 µM	500 µM	3.098	1.456	0.822	0.637	2.113	0.491	0.163	−0.085	−0.196	2.7386	4.67	4.61	3.67	125 µM	125 µM	125 µM	> 610 µM	> 610 µM	
COC(=O)Nc1cccc(C(O)CN2CCN(c3ccccc3F)CC2)c1.Cl (stereo not drawn) [8a, 1-(2-Hydroxy-2-{3-[(methoxycarbonyl)amino]phenyl}ethyl)-4-(2-fluorophenyl)piperazin-1-ium chloride]	500 µM	500 µM	4.091	1.770	0.925	0.699	2.430	0.612	0.248	−0.034	−0.156	3.0678	4.30	4.30	3.45	250 µM	250 µM	250 µM	> 610 µM	> 610 µM	MIC ([1]; ATCC25291, 336 h, 14-d/21-d, read-out: MIC against M. avium CNCTC My 330/80): 500 µM
CCOC(=O)Nc1cccc(C(O)CN2CCN(c3ccccc3F)CC2)c1.Cl (stereo not drawn) [8b, 1-(2-{3-[(Ethoxycarbonyl)amino]phenyl}-2-hydroxyethyl)-4-(2-fluorophenyl)piperazin-1-ium chloride]	250 µM	250 µM	4.951	2.778	1.245	0.879	2.546	0.695	0.444	0.095	−0.056	3.0529	4.33	4.31	3.40		125 µM	125 µM	295 µM	> 590 µM	
